Literature values in patent US20260210975A1, “DIAGNOSIS AND TREATMENT OF LONG-COVID” (priority 2022, published 2026).
Like-named read-outs stand apart in the source and are kept apart here.

Molecular target: KCNH2 (Homo sapiens, UniProt Q12809)
Sequence (Q12809 whole entry): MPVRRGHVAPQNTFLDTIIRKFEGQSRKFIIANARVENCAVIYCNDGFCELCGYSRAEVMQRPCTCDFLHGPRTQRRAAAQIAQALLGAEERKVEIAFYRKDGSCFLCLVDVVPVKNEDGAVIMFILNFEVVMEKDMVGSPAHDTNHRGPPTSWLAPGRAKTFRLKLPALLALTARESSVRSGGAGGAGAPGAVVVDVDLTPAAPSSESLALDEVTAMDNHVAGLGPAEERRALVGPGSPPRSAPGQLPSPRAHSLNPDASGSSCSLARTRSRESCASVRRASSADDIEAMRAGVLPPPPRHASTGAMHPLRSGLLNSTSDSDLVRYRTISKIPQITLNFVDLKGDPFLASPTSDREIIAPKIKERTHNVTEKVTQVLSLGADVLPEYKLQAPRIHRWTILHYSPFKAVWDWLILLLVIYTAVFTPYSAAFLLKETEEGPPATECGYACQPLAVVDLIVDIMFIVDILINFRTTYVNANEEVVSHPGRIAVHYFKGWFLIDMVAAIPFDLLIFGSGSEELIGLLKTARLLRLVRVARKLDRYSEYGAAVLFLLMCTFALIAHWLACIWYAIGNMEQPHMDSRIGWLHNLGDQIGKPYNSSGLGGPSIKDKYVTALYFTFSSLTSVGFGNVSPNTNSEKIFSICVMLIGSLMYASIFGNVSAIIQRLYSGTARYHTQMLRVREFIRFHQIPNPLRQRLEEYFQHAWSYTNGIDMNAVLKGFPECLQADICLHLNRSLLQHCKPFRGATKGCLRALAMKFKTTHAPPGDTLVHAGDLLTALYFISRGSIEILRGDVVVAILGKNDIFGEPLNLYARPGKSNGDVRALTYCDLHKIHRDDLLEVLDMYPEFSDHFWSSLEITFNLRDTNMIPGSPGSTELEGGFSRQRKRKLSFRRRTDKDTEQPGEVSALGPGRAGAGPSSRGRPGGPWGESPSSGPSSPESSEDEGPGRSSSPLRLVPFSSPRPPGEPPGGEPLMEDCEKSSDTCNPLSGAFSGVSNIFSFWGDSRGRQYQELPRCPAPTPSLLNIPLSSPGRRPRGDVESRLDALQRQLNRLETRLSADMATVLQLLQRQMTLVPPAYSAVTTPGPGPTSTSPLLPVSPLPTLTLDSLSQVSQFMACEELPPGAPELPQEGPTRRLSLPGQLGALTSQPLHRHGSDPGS

Compound | IC50 [µM] | other results
Cc1cc2c(s1)Nc1ccccc1N=C2N1CCN(C)CC1 [olanzapine] | ~6.01 | –
COc1ccc(CN(CCN(C)C)c2ccccn2)cc1 [pyrilamine] | ~6 | –
C[C@@H]1CN(c2c(F)c(N)c3c(=O)c(C(=O)O)cn(C4CC4)c3c2F)C[C@H](C)N1 [sparfloxacin] | ~18 | –
arsenic trioxide | – | IKr (listed as weak inhibitor of KCNH2, literature value): approximately 300 μmol/l
prenylamine | – | IC50 (read-out: IC50 (half maximal inhibitory concentration), KCNH2 inhibitors, literature values): ~0.59 µM
